Measurements: patent US20220257629A1, “COMPOSITIONS AND METHODS FOR UPREGULATION OF HUMAN FETAL HEMOGLOBIN” (THE UAB RESEARCH FOUNDATION, priority 2019, published 2022)

Legend:
[1] = tested on: human CD34+-differentiated erythroid cells; assay: Library screen, RT-PCR of γ- and β-globin expression; assay type: cell-based
Experimental: (§1) Briefly, for the screen, 5×10^5 CD34^+ cells were expanded for six days in StemSpan SFEM medium (StemCell Technologies Inc., Vancouver, Canada) with SCF, IL-3, TPO and Flt-3 ligand. After expansion, 100,000 cells were distributed to each well (in a 24-well plate) and grown in SFEM medium with 2% P/S, 20 ng/ml SCF, 1 U/ml Epo, 5 ng/ml IL-3, 2 μM dexamethasone, and 1 μM β-estradiol. Individual small molecules were added to each well. Cells were differentiated for another nine days (for RNA analysis) or fourteen days (for hemoglobin analysis). The γ- and β-globin expression in each sample were analyzed by RT-PCR or HPLC.

[2] = tested on: human β-globin BAC transgenic mice; assay: In vivo globin gene expression by qRT-PCR; design: species or system mouse; conditions: 100 mg/kg daily intraperitoneal injections for four weeks, blood, qRT-PCR (FIG. 6)
Experimental: To test if idoxuridine can induce mouse Ey2 and human γ-globin expression in human β-BAC transgenic mice, 100 mg/kg body weight of Idoxuridine were injected intraperitoneally (IP) into mice for 4 weeks. Blood samples were obtained at the end of Idoxuridine treatment and cDNAs were synthesized. Mouse Ey2 and human γ-globin expression were analyzed by qRT-PCR.

[3] = tested on: human CD34+-differentiated erythroid cells; assay: Western blot analysis of KLF1, BCL11A and LRF; assay type: cell-based; conditions: 0.7 uM, 7 days, compared to DMSO (FIG. 5)
Experimental: To analyze the expression of KLF1, BCL11A and LRF by Western blot, whole cell extracts were prepared from erythroid cells differentiated for seven days with DMSO or 0.7 uM of idoxuridine. Antibodies used included Actb (Santa Cruz, sc-47778 HRP, Dallas, Tex.), KLF1 (Santa Cruz, sc-14034), BCL11A (Abcam, ab19489, Cambridge, UK) and LRF (Abcam, ab175918).

[4] = tested on: human CD34+-differentiated erythroid cells; assay: HPLC hemoglobin analysis; assay type: cell-based; conditions: 0.3 or 0.65 μM, compared to DMSO treated cells (FIG. 2)
Experimental: as §1

[5] = tested on: human CD34+-differentiated erythroid cells; assay: FACS analysis of fetal hemoglobin expressing erythroid cells (F cells); assay type: cell-based; conditions: 0.3, 0.5 or 0.7 μM, 14 days, compared to DMSO control (FIG. 1)
Description: For fetal hemoglobin analysis, one million erythroid cells, differentiated for 14 days with or without idoxuridine in the medium, were washed with PBS that included 0.1% BSA, and fixed in 0.05% Glutaraldehyde (Sigma, G5882, St. Louis, Mo.). The fixed cells were washed three times with PBS that included 0.1% BSA, followed by permeabilization in 1% Triton X-100 (Life Technologies, HFH-10, Carlsbad, Calif.), before immunostaining with an antibody directed against HbF (Invitrogen, MHFH04, Carlsbad, Calif.).

[6] = tested on: human CD34+-differentiated erythroid cells; assay: RNAseq gene expression; assay type: cell-based
[7] = tested on: human CD34+-differentiated erythroid cells; assay: Isoelectric focusing gel of the samples analyzed by HPLC; assay type: cell-based; conditions: idoxuridine 0.3 and 0.65 μM (FIG. 4)
[8] = human CD34+-differentiated erythroid cells

**Q.** Which “HbF expression in a drug screen” value [1] does the source give for `O=c1[nH]c(=O)n([C@H]2C[C@H](O)[C@@H](CO)O2)cc1C(F)(F)F` [Trifluridine, trifluridine] here?
**A.** potent inducers

**Q.** What about the “γ-globin gene expression in the original screen” value ([1]; original screen) of the same compound?
**A.** reactivated

**Q.** Which results are given for `O=c1[nH]c(=O)n([C@H]2C[C@H](O)[C@@H](CO)O2)cc1I` [Idoxuridine, idoxuridine]?
**A.** human γ-globin gene expression [2]: increased; mouse Ey-2 gene expression [2]: increased; BCL11A expression (Western blot) [3]: decreases; KLF1 expression (Western blot) [3]: decreases; fetal hemoglobin (HPLC) [4]: significantly increases; number of erythroid cells expressing fetal hemoglobin (F cells) [5]: increases; ε-globin gene expression ([6]; Table 1): reactivated; RNAseq expression, BCL11A ([6]; gene BCL11A, idoxuridine treated cells): 478.2; Fold change, BCL11A ([6]; gene BCL11A, idoxuridine vs DMSO control): 0.303; RNAseq expression, HBB ([6]; gene HBB, idoxuridine treated cells): 20938; Fold change, HBB ([6]; gene HBB, idoxuridine vs DMSO control): 0.2; RNAseq expression, HBD ([6]; gene HBD, idoxuridine treated cells): 1798; Fold change, HBD ([6]; gene HBD, idoxuridine vs DMSO control): 0.16; RNAseq expression, HBE1 ([6]; gene HBE1, idoxuridine treated cells): 17051; Fold change, HBE1 ([6]; gene HBE1, idoxuridine vs DMSO control): 560; RNAseq expression, HBG1 ([6]; gene HBG1, idoxuridine treated cells): 18815; Fold change, HBG1 ([6]; gene HBG1, idoxuridine vs DMSO control): 8.19; RNAseq expression, HBG2 ([6]; gene HBG2, idoxuridine treated cells): 980; Fold change, HBG2 ([6]; gene HBG2, idoxuridine vs DMSO control): 6; RNAseq expression, SOX6 ([6]; gene SOX6, idoxuridine treated cells): 13; Fold change, SOX6 ([6]; gene SOX6, idoxuridine vs DMSO control): 0.25; BCL11A mRNA expression [6, 8]: decreased; KLF1 mRNA expression [6, 8]: decreased; HbF expression (isoelectric focusing gel) [7]: upregulated; HbF expression in a drug screen [1]: potent inducers; HbF expression (reverse transcriptase-PCR) [1, 8]: upregulates; γ-globin expression ([1]; human CD34+-differentiated erythroid cells contacted with idoxuridine): significantly increased
